Measured values taken from article PMC5711939, “The rumen microbiome: an underexplored resource for novel antimicrobial discovery” (NPJ Biofilms and Microbiomes, 2017).
Ends that are not written are not given here.

Test system: MRSA ATCC 33591
Assay: Anti-biofilm activity, 96-well crystal violet model
Assay type: cell-based, Staphylococcus aureus
Details: 0.25× MIC (data not shown)
Experimental: The effectiveness of Lynronne-1, Lynronne-2, and Lynronne-3 to prevent (a) biofilm attachment and (b) disrupt established biofilms was measured using a 96-well biofilm model.[50] […] The biofilms were washed in PBS to remove planktonic cells, fixed with methanol, stained with 0.5% (w/v) crystal violet and re-solubilized with 33% (v/v) acetic acid. The optical density of biofilms was measured at 570 nm.

HLRRINKLLTRIGLYRHAFG-NH2 [Lynronne-2]
Biofilm attachment: effective
